Reference: ChEMBL document CHEMBL1156134, “2-Amino-5-aryl-pyridines as selective CB2 agonists: synthesis and investigation of structure-activity relationships” (Bioorg Med Chem Lett, 2009)

Legend:
Cannabinoid receptor 2 [1] = target: T1, Cannabinoid receptor 2 (Homo sapiens, UniProt P34972); experiment: Agonist activity at human CB2 receptor expressed in yeast cells; format: functional, cell-based
Cannabinoid receptor 2 [2] = target: T1, Cannabinoid receptor 2; experiment: Agonist activity at human CB2 receptor expressed in yeast cells relative to HU210; format: functional, cell-based
Liver microsomes = experiment: Clearance in rat liver microsomes; format: ADME, Microsome
Cannabinoid receptor 1 [3] = target: T2, Cannabinoid receptor 1 (Homo sapiens, UniProt P21554); experiment: Agonist activity at human CB1 receptor expressed in yeast cells; format: functional, cell-based
Cannabinoid receptor 1 [4] = target: T2, Cannabinoid receptor 1; experiment: Agonist activity at human CB1 receptor expressed in yeast cells relative to HU210; format: functional, cell-based

T2 sequence (P21554 whole entry): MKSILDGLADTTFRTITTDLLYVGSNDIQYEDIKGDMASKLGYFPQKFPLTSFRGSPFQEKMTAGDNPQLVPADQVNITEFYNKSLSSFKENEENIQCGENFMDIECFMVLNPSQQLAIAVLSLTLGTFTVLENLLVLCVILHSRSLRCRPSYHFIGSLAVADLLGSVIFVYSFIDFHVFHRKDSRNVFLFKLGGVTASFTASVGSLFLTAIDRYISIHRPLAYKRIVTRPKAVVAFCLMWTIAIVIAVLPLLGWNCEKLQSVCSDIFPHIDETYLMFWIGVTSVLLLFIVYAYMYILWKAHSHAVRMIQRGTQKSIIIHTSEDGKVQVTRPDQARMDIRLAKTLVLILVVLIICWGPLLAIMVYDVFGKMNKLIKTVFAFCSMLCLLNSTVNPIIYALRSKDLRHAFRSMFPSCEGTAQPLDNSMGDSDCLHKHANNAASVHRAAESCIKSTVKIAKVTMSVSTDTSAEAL
T1 sequence (P34972 whole entry): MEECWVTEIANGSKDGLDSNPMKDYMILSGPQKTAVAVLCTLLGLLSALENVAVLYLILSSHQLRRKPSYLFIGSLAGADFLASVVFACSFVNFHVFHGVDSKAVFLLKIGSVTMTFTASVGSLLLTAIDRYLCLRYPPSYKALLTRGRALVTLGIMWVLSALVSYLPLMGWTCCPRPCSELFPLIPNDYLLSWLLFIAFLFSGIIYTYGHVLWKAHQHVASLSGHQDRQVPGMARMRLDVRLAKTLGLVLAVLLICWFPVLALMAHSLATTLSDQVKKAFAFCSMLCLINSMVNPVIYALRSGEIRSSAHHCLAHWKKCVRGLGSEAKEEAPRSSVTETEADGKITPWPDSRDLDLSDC

EC50 (Cannabinoid receptor 2 [1]) [nM]	Efficacy (Cannabinoid receptor 2 [2]) [%]	CL (Liver microsomes) [mL/min/g]	Structure (SMILES)	EC50 (Cannabinoid receptor 1 [3]) [nM]	Efficacy (Cannabinoid receptor 1 [4]) [%]
> 31600			Fc1ccc(-c2ccc(N3CCOCC3)nc2)c(F)c1		
3980	11		Clc1ccc(-c2ccc(N3CCOCC3)nc2)cc1Cl		
398	43		Clc1ccccc1-c1ccc(N2CCOCC2)nc1		
100	101	13	Clc1ccc(-c2ccc(N3CCCCCC3)nc2)nc1		
251	59		O=C1CCCN1c1ccc(-c2cccc(Cl)c2Cl)cn1		
794	86		Cc1cccnc1-c1ccc(N2CCCCCC2)nc1		
251	37	11	C[C@@H]1CC[C@H](C)N1c1ccc(-c2cccc(Cl)c2Cl)cn1		
10000	29		c1ccc(-c2ccc(N3CCCCCC3)nc2)nc1		
3980	19		O=C1CCC(=O)N1c1ccc(-c2cccc(Cl)c2Cl)cn1		
63.1	87	27	Clc1cccc(-c2ccc(N3CCCOCC3)nc2)c1Cl		
501	73		Cc1c(Cl)cccc1-c1ccc(N2CCOCC2)nc1		
63.1	80	> 50	c1cc2occc2c(-c2ccc(N3CCCCCC3)nc2)n1		

Further lines, the compound ahead of its results:

Structure (SMILES)	EC50 (Cannabinoid receptor 2 [1]) [nM]	Efficacy (Cannabinoid receptor 2 [2]) [%]	CL (Liver microsomes) [mL/min/g]	EC50 (Cannabinoid receptor 1 [3]) [nM]	Efficacy (Cannabinoid receptor 1 [4]) [%]
Clc1cccnc1-c1ccc(N2CCCCCC2)nc1	501	103			
Cc1ccc(N)c(-c2ccc(N3CCCCCC3)nc2)n1	126	86			
Clc1cccc(-c2ccc(N3CCSCC3)nc2)c1Cl	158	93			
Clc1cnc(-c2ccc(N3CCCCCC3)nc2)c(Cl)c1	316	100			
Nc1cccnc1-c1ccc(N2CCCCCC2)nc1	1000	91			
Fc1cccc(-c2ccc(N3CCOCC3)nc2)c1F	251	58			
CC1CC(C)CN(c2ccc(-c3cccc(Cl)c3Cl)cn2)C1 (stereo not given)	501	73			
Clc1ccc(-c2ccc(N3CCOCC3)nc2)c(Cl)c1	> 31600				
Cc1cnc(-c2ccc(N3CCCCCC3)nc2)c(C)c1	1260	102			
N#Cc1cccnc1-c1ccc(N2CCCCCC2)nc1	398	75			
O=C(O)c1cc(-c2cccc(Cl)c2Cl)cnc1N1CCCCCC1	1580	41		> 31600	
Clc1cccc(-c2ccc(N3CCCCCC3)nc2)c1Cl	39.8	104	30	10000	4
Clc1cccc(-c2ccc(N3CCOCC3)nc2)c1	1000	20			
FC(F)(F)c1cc(N2CCCCCC2)ncc1-c1cccc(Cl)c1Cl	2510	79		> 31600	
Clc1ccc(Cl)c(-c2ccc(N3CCOCC3)nc2)c1	631	25			
Clc1cccc(-c2ccc(N3CCOCC3)nc2)c1Cl	79.4	88	9.5		
CCCCNc1ccc(-c2cccc(Cl)c2Cl)cn1	79.4	88			
CN(C)C(=O)c1cc(-c2cccc(Cl)c2Cl)cnc1N1CCCCCC1	794	37		> 31600	
N#Cc1cc(N2CCCCCC2)ncc1-c1cccc(Cl)c1Cl	100	86	> 50	10000	13
FC(F)(F)c1cc(-c2cccc(Cl)c2Cl)cnc1N1CCCCCC1	6310	12		> 31600	
N#Cc1cc(-c2cccc(Cl)c2Cl)cnc1N1CCCCCC1	3980	41		> 31600	
O=C(c1cc(-c2cccc(Cl)c2Cl)cnc1N1CCCCCC1)N1CCOCC1	79.4	67	> 50	10000	0.19
